Calls of active or inactive are those of the source.
Legend:
[1] = target: T1, Corticotropin-releasing factor receptor 2/Corticotropin-releasing factor-binding protein (Homo sapiens, UniProt P24387+Q13324); assay: activators of CRF receptor 2 with binding protein – uHTS hits, confirmation (AID 602473); format: functional; conditions: read-out: EC50_Mean
T1 sequence (Q13324 whole entry): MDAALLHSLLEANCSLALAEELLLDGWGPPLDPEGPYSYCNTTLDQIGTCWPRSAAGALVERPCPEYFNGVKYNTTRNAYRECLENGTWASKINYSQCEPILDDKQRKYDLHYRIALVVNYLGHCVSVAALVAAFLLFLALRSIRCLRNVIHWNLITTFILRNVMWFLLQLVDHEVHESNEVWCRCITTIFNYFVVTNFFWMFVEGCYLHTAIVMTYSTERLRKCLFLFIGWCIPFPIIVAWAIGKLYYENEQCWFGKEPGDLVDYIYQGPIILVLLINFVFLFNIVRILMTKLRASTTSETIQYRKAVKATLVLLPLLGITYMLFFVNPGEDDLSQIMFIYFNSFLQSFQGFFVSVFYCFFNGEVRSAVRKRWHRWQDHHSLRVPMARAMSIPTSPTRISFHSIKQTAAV
T1 sequence (P24387 whole entry): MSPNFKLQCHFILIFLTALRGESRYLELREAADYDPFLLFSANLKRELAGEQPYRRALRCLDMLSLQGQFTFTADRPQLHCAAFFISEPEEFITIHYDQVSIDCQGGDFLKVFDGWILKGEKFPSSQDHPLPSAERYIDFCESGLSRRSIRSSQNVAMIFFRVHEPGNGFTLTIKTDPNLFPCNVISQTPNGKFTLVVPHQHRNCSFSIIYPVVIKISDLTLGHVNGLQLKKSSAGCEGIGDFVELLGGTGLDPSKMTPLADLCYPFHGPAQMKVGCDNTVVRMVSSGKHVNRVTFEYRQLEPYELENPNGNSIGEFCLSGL

[2] = target: T1, Corticotropin-releasing factor receptor 2/Corticotropin-releasing factor-binding protein; assay: Dose Response confirmation of uHTS hits for small molecule antagonists of the CRF-binding protein and CRF-R2 receptor complex.; format: functional; conditions: read-out: IC50_Mean
[3] = CRF-BP/CRF-R2 complex antagonists, dose response, cell-based, uHTS hits, 384-well (AID 651639); format: functional, Homo sapiens; conditions: read-out: IC50_Mean
[4] = Luminescence Cell-Based Dose Retest to Confirm Inhibitors of Cancer Stem Cells. [Related pubchem assays (depositor defined):AID2717, AID2721]; format: functional; conditions: Homo sapiens
Fatty acid synthase [5] = target: T2, Fatty acid synthase (Homo sapiens, UniProt P49327); assay: FAS thioesterase domain inhibitors, dose response, biochemical, kinetic fluorescence intensity (AID 624326); format: functional;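 also: rate of fluorescence rise from hydrolysis of a fluorogenic O-methyl fluorescein ester substrate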
Fatty acid synthase [6] = target: T2, Fatty acid synthase; assay: FAS thioesterase domain inhibitors, dose response, biochemical, endpoint fluorescence intensity, uHTS hits (AID 624327); format: functional;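 also: fluorescence from hydrolysis of an O-methyl fluorescein acyl ester substrate by the enzyme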
cells [7] = format: functional, cell-based
cells [8] = format: functional, cell-based; remark: listed apart in the source
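For AC50 in this document: cells exposed to compound for roughly 70 hours or longer before luminescence read.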

T2 sequence (P49327 whole entry, the tested form may be a part): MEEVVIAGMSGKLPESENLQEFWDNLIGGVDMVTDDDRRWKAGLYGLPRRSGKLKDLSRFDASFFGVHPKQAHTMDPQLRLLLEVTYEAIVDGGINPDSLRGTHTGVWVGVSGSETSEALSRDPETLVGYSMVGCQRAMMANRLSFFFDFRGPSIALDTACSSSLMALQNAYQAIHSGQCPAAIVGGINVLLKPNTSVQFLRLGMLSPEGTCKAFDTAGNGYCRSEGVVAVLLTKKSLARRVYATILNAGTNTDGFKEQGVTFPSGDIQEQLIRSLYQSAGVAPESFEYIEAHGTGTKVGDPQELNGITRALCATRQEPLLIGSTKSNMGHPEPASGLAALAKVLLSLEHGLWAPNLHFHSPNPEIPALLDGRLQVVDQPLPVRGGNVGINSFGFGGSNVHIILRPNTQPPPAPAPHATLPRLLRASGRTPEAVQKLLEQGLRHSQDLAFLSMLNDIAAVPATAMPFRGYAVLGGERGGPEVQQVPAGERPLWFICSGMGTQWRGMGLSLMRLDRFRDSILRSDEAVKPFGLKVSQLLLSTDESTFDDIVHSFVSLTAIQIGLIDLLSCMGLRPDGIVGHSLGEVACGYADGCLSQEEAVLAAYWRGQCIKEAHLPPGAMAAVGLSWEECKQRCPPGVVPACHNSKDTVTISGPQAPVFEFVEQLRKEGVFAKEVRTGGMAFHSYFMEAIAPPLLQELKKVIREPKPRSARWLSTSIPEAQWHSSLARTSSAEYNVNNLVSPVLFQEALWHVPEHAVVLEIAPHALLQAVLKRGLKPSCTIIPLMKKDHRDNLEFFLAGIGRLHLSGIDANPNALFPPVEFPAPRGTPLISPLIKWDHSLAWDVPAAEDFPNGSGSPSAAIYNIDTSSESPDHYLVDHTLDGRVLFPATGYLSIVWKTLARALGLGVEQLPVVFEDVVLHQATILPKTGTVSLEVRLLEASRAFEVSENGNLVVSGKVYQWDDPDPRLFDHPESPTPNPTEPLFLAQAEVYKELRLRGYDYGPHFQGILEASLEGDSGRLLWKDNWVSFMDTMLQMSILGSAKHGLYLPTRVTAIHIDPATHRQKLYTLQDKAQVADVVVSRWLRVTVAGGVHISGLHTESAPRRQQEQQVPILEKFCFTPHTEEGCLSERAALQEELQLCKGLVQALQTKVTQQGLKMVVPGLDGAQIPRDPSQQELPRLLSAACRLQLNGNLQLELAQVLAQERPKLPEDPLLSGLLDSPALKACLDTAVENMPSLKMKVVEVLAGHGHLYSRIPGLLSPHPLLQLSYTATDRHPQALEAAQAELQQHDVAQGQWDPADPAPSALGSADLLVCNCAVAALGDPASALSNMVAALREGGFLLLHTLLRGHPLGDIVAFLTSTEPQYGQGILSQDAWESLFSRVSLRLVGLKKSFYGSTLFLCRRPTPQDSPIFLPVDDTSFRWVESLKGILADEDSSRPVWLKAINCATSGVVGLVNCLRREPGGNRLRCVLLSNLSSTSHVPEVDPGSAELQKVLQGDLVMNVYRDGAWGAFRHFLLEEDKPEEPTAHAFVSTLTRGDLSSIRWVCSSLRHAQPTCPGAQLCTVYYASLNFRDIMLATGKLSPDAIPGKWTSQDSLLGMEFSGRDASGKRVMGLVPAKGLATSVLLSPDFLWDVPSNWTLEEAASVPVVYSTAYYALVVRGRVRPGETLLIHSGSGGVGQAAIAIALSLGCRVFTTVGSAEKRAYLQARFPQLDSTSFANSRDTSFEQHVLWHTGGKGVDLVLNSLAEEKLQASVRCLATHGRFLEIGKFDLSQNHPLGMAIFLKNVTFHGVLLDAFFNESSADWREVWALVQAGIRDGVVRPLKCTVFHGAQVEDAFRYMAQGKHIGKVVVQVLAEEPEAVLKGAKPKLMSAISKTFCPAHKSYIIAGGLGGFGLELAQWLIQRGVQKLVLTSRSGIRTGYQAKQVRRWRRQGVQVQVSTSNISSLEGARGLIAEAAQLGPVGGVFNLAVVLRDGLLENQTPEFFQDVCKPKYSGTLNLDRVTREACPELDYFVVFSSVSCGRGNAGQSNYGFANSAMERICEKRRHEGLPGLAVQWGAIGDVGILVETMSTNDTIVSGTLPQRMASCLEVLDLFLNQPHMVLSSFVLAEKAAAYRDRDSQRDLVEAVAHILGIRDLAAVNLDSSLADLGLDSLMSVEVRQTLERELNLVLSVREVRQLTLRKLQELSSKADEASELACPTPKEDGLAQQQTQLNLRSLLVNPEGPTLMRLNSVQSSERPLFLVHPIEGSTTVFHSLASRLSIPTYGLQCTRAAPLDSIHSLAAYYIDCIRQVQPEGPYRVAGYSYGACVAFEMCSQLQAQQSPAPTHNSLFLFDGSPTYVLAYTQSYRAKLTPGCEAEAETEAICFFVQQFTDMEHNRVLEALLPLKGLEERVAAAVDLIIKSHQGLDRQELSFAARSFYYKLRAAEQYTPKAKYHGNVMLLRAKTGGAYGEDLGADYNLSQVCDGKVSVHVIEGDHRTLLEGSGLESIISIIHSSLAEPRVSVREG

**Q.** For `COc1ccc(NC(=O)CCCCC(=O)Nc2ccc(OC)cc2OC)c(OC)c1`, which EC50 [1] is on record?
**A.** Its EC50 is > 53 µM (inactive).

**Q.** And the IC50 [2]?
**A.** Its IC50 is < 0.368 µM (active).

**Q.** And the IC50 [3]?
**A.** The IC50 was > 20 µM (inactive).

**Q.** For `COC(=O)C1=CN(Cc2ccc(OC)cc2)C=C(C(=O)OC)C1c1cccs1`, which EC50 [1] is on record?
**A.** Its EC50 is > 53 µM (inactive).

**Q.** And the IC50 [2]?
**A.** Its IC50 is 4.21 µM (active).

**Q.** And the IC50 [3]?
**A.** Its IC50 is > 20 µM (inactive).

**Q.** For `O=C(/C=C/c1cc2ccccc2o1)c1ccccc1O`, which AC50 [4] is on record?
**A.** Its AC50 is 10.6 µM (active).

**Q.** With `Cc1ccc(NC(=O)Cn2ncn3c(cc4ccccc43)c2=O)cc1F` as the compound, how does the EC50 [1] read?
**A.** The EC50 was > 53 µM (inactive).

**Q.** What about the IC50 [2] of the same compound?
**A.** Its IC50 is 9.94 µM (active).

**Q.** What about the IC50 [3] of the same compound?
**A.** The IC50 was 7.27 µM (active).

**Q.** Which results are given for `Cc1ccc(NC(=O)c2cc([N+](=O)[O-])ccc2N2CCOCC2)cc1C`?
**A.** IC50 (Fatty acid synthase [5]): 2.81 µM (active); IC50 (Fatty acid synthase [6]): 4.24 µM (active)

**Q.** Which AC50 [4] does the source give for `O=[N+]([O-])c1cccc(C2NCC(c3ccccc3Cl)c3c2[nH]c2ccccc32)c1` (stereo unspecified) here?
**A.** The AC50 was 2.69 µM (active).

**Q.** Which results are given for `CCOC(=O)C(CCCCOc1ccc([N+](=O)[O-])cc1)C(=O)OCC`?
**A.** EC50 [1]: > 53 µM (inactive); IC50 [2]: 25.9 µM (active); IC50 [3]: > 20 µM (inactive)

**Q.** For `C[C@@H]1CN([C@H](C)CO)C(=O)c2cc(NC(=O)Nc3ccc(F)cc3)ccc2O[C@@H](C)CCCCO[C@H]1CN(C)S(=O)(=O)c1cccs1`, which IC50 (Fatty acid synthase [5]) is on record?
**A.** The IC50 was 3.69 µM (active).

**Q.** And the IC50 (Fatty acid synthase [6])?
**A.** Its IC50 is 5.17 µM (active).

**Q.** For `COc1ccc2c(c1)C(=O)N1[C@H]3c4cc(Cl)ccc4OC[C@@H]3[C@H](c3ccccc3)[C@]1(C)C(=O)N2`, which IC50 (Fatty acid synthase [5]) is on record?
**A.** Its IC50 is 18.8 µM (active).

**Q.** What about the IC50 (Fatty acid synthase [6]) of the same compound?
**A.** Its IC50 is 16.5 µM (active).

**Q.** Which EC50 (cells [7]) does the source give for `CC(C)Sc1nc(N)c2c3c(sc2n1)CN(C)CC3` here?
**A.** The EC50 was > 350 µM (not active).

**Q.** What about the EC50 (cells [8]) of the same compound?
**A.** The EC50 was > 350 µM (not active).

**Q.** For `Cc1onc(-c2ccccc2)c1C(=O)Nc1ccc(S(=O)(=O)N2CCCC2)cc1`, which EC50 (cells [7]) is on record?
**A.** The EC50 was > 350 µM (not active).

**Q.** What about the EC50 (cells [8]) of the same compound?
**A.** The EC50 was > 350 µM (not active).

**Q.** For `COC(=O)c1cc(S(=O)(=O)NCc2ccccc2OC)cn1C`, which EC50 (cells [7]) is on record?
**A.** Its EC50 is > 350 µM (not active).

**Q.** What about the EC50 (cells [8]) of the same compound?
**A.** The EC50 was > 350 µM (not active).
